Reference: patent publication US11987648B2, “Cyclohexapeptides as selective somatostatin SST5 receptor agonists” (Heptares Therapeutics Limited, priority 2018, dated 2024)
*1 amine or outer side, *2 acyl side, *3 side chain or, on linkers, in order; H or OH if unused. Where a SMILES comes first, the peptide text is derived from it. Side-chain parts run from the residue outwards. [ ]: non-standard residue; d: D form. The star is where a group is joined. Ala(piperidin-4-yl) = O=C([C@H](CC1CCN([*:3])CC1)N[*:1])[*:2]; dTrp(4-OMe) = COc1cccc2[nH]cc(C[C@@H](N)C(=O)O)c12; dTrp(5-OMe) = COc1ccc2[nH]cc(C[C@@H](N)C(=O)O)c2c1; Ala(piperazin-1-yl) = N[C@@H](CN1CCNCC1)C(=O)O; Phe(3-Cl) = N[C@@H](Cc1cccc(Cl)c1)C(=O)O; Phe(4-Cl) = N[C@@H](Cc1ccc(Cl)cc1)C(=O)O; Morpholine(3S-CO) = O=C(O)[C@@H]1COCCN1; Ethylenediamine = C(CN[*:2])N[*:1]; d(hPhe) = N[C@H](CCc1ccccc1)C(=O)O; Hyp = O=C(O)[C@@H]1C[C@@H](O)CN1; hPhe = N[C@@H](CCc1ccccc1)C(=O)O; 3Pal = N[C@@H](Cc1cccnc1)C(=O)O; Cyclohexylmethyl = C1CCC(C*)CC1; Tic = O=C(O)[C@@H]1Cc2ccccc2CN1; Benzyl(4-Cl) = Clc1ccc(C*)cc1; X6 = Clc1cccc(Cl)c1C*; CO = O=C([*:1])[*:2]; Bn = c1ccc(C*)cc1; X1 = C1CCC(C*)C1; X4 = C1CC(C*)C1

Columns and labels:
SST5 = SST5 (Homo sapiens, UniProt P35346); test: Hit Hunter cAMP XS+ assay, SST5 activation via Gi (reduction of forskolin-stimulated cAMP); format: cell-based; conditions: for Emax: read-out: SST5 (EMax); for EC50: reduction of forskolin-stimulated cAMP, 4-parameter logistic fit, read-out: SST5 pEC50 (converted); for SST5/2 Selectivity: selectivity for SST5 over SST2
Method: (§1) A Hit Hunter® cAMP XS+ assay was used to monitor activation of the SST2 and SST5 via the Gi G protein. Cells were pre-stimulated with forskolin to elicit a cAMP response and the potency and efficacy of somatostatin agonists to reduce cAMP was measured. Briefly cells (10,000 cells/well) were incubated (37° C.; 30 min) with compound ([…]) in media (2:1 HBSS/11 mM Hepes: cAMP XS+Ab reagent) in the presence of EC80 forskolin ([…] and 15 μM SST5). Signal was detected through incubation with 20 μL cAMP XS+ED/CL lysis cocktail ([…]; RT) followed by incubation with […] cAMP XS+EA reagent (180 min; RT). Microplates were read with a PerkinElmer Envision™ instrument for chemiluminescent signal detection.

SST2 = SST2 (Homo sapiens, UniProt P30874); test: Hit Hunter cAMP XS+ assay, SST2 activation via Gi (reduction of forskolin-stimulated cAMP); format: cell-based; conditions: for Emax: read-out: SST2 (EMax); for EC50: reduction of forskolin-stimulated cAMP, 4-parameter logistic fit, read-out: SST2 pEC50 (converted)
Method: as §1

SST5, sequence (P35346 whole entry): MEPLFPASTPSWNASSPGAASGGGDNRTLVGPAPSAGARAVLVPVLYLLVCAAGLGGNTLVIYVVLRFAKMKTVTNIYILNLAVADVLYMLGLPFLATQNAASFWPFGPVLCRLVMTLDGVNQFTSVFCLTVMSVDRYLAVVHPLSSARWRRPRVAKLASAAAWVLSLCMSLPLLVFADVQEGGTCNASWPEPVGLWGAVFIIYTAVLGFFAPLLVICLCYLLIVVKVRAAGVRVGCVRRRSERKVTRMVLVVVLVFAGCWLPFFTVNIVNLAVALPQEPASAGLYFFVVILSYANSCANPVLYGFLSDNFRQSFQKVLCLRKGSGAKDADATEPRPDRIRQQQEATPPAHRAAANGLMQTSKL
SST2, sequence (P30874 whole entry): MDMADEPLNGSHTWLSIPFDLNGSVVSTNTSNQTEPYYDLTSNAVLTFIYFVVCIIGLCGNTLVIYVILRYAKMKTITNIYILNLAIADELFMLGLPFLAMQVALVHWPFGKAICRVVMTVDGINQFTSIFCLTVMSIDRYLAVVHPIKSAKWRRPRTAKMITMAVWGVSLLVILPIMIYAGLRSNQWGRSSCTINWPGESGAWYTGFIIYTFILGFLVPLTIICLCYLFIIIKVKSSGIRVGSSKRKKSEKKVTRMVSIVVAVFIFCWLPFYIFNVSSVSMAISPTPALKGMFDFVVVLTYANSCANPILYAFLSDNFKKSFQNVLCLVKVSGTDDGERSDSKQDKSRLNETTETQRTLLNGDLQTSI

| Emax (SST5) | EC50 (SST5) | SST5/2 Selectivity (SST5) | Emax (SST2) | EC50 (SST2) | Compound |
| --- | --- | --- | --- | --- | --- |
| 102% | 1 nM | 3271.8 | 49.2% | 3980 nM | NCCNC(=O)O[C@@H]1C[C@H]2C(=O)N[C@@H](CCc3ccccc3)C(=O)N[C@@H](Cc3c[nH]c4ccccc34)C(=O)N[C@@H](CN3CCNCC3)C(=O)N[C@@H](Cc3ccc(OCc4ccccc4)cc3)C(=O)N[C@@H](Cc3cccnc3)C(=O)N2C1 [Example 34] (cyclo([3Pal][Hyp]([CO-Ethylenediamine])[hPhe]W[Ala(piperazin-1-yl)]Y(Bn))) |
| 107% | 1 nM | 10046.0 | 27.8% | > 10000 nM | NCCNC(=O)O[C@@H]1C[C@H]2C(=O)N[C@H](CCc3ccccc3)C(=O)N[C@@H](Cc3c[nH]c4ccccc34)C(=O)N[C@@H](CN3CCNCC3)C(=O)N[C@@H](Cc3ccc(OCc4ccccc4)cc3)C(=O)N3Cc4ccccc4C[C@H]3C(=O)N2C1 [Example 35] (cyclo([Hyp]([CO-Ethylenediamine])[d(hPhe)]W[Ala(piperazin-1-yl)]Y(Bn)[Tic])) |
| 102% | 1.26 nM | 384.3 | 63.4% | 501 nM | NCCNC(=O)O[C@@H]1C[C@H]2C(=O)N[C@@H](CCc3ccccc3)C(=O)N[C@@H](Cc3c[nH]c4ccccc34)C(=O)N[C@@H](CN3CCNCC3)C(=O)N[C@@H](Cc3ccc(OCc4ccccc4)cc3)C(=O)N3Cc4ccccc4C[C@H]3C(=O)N2C1 [Example 36] (cyclo([Hyp]([CO-Ethylenediamine])[hPhe]W[Ala(piperazin-1-yl)]Y(Bn)[Tic])) |
| 108% | 2 nM | 2927.5 | 75.8% | 6310 nM | NCCNC(=O)O[C@@H]1C[C@H]2C(=O)N[C@@H](CCc3ccccc3)C(=O)N[C@H](Cc3c[nH]c4ccccc34)C(=O)N[C@@H](CN3CCNCC3)C(=O)N[C@@H](Cc3ccc(OCc4ccccc4)cc3)C(=O)N3CCC[C@H]3C(=O)N2C1 [Example 37] (cyclo([Hyp]([CO-Ethylenediamine])[hPhe][dW][Ala(piperazin-1-yl)]Y(Bn)P)) |
| 103% | 12.6 nM | 171.5 | 82.7% | 2510 nM | NCCNC(=O)O[C@@H]1C[C@H]2C(=O)N[C@H](CCc3ccccc3)C(=O)N[C@H](Cc3c[nH]c4ccccc34)C(=O)N[C@@H](CC3CCNCC3)C(=O)N[C@@H](Cc3ccc(OCc4ccccc4)cc3)C(=O)N[C@@H](Cc3ccccc3)C(=O)N2C1 [Example 38] (cyclo(F[Hyp]([CO-Ethylenediamine])[d(hPhe)][dW][Ala(piperidin-4-yl)]Y(Bn))) |
| 107% | 0.398 nM | 1104.6 | 100% | 398 nM | COc1ccc2[nH]cc(C[C@H]3NC(=O)[C@H](CCc4ccccc4)NC(=O)[C@@H]4C[C@@H](OC(=O)NCCN)CN4C(=O)[C@H](Cc4cccnc4)NC(=O)[C@H](Cc4ccc(OCc5ccccc5)cc4)NC(=O)[C@H](CC4CCNCC4)NC3=O)c2c1 [Example 39] (cyclo([3Pal][Hyp]([CO-Ethylenediamine])[hPhe][dTrp(5-OMe)][Ala(piperidin-4-yl)]Y(Bn))) |
| 106% | 2.51 nM | 126.6 | 91.2% | 316 nM | NCCNC(=O)O[C@@H]1C[C@H]2C(=O)N[C@@H](CCc3ccccc3)C(=O)N[C@H](Cc3c[nH]c4ccccc34)C(=O)N[C@@H](CC3CCNCC3)C(=O)N[C@@H](Cc3ccc(OCc4ccc(Cl)cc4)cc3)C(=O)N[C@@H](Cc3cccnc3)C(=O)N2C1 [Example 40] (cyclo([3Pal][Hyp]([CO-Ethylenediamine])[hPhe][dW][Ala(piperidin-4-yl)]Y(Benzyl(4-Cl)))) |
| 104% | 0.158 nM | 51.0 | 102% | 7.94 nM | NCCNC(=O)O[C@@H]1C[C@H]2C(=O)N[C@@H](CCc3ccccc3)C(=O)N[C@H](Cc3c[nH]c4ccccc34)C(=O)N[C@@H](CC3CCNCC3)C(=O)N[C@@H](Cc3ccc(OCc4ccccc4)cc3)C(=O)N[C@@H](Cc3cccc(Cl)c3)C(=O)N2C1 [Example 41] (cyclo([Hyp]([CO-Ethylenediamine])[hPhe][dW][Ala(piperidin-4-yl)]Y(Bn)[Phe(3-Cl)])) |
| 104% | 0.251 nM | 45.1 | 99.3% | 12.6 nM | NCCNC(=O)O[C@@H]1C[C@H]2C(=O)N[C@@H](CCc3ccccc3)C(=O)N[C@H](Cc3c[nH]c4ccccc34)C(=O)N[C@@H](CC3CCNCC3)C(=O)N[C@@H](Cc3ccc(OCc4ccccc4)cc3)C(=O)N[C@@H](Cc3ccc(Cl)cc3)C(=O)N2C1 [Example 42] (cyclo([Hyp]([CO-Ethylenediamine])[hPhe][dW][Ala(piperidin-4-yl)]Y(Bn)[Phe(4-Cl)])) |
| 107% | 0.316 nM | 94.3 | 101% | 31.6 nM | COc1ccc(C[C@@H]2NC(=O)[C@H](Cc3ccc(OCc4ccccc4)cc3)NC(=O)[C@H](CC3CCNCC3)NC(=O)[C@@H](Cc3c[nH]c4ccccc34)NC(=O)[C@H](CCc3ccccc3)NC(=O)[C@@H]3C[C@@H](OC(=O)NCCN)CN3C2=O)cc1 [Example 43] (cyclo([Hyp]([CO-Ethylenediamine])[hPhe][dW][Ala(piperidin-4-yl)]Y(Bn)Y(Me))) |
| 105% | 1 nM | 823.8 | 75.3% | 794 nM | NCCNC(=O)O[C@@H]1C[C@H]2C(=O)N[C@@H](CCc3ccccc3)C(=O)N[C@H](Cc3c[nH]c4ccccc34)C(=O)N[C@@H](CC3CCNCC3)C(=O)N[C@@H](Cc3ccc(OCC4CCCCC4)cc3)C(=O)N3Cc4ccccc4C[C@H]3C(=O)N2C1 [Example 44] (cyclo([Hyp]([CO-Ethylenediamine])[hPhe][dW][Ala(piperidin-4-yl)]Y(Cyclohexylmethyl)[Tic])) |
| 100% | 0.398 nM | 430.7 | 100% | 158 nM | O=C1N[C@@H](Cc2ccc(OCc3ccccc3)cc2)C(=O)N2Cc3ccccc3C[C@H]2C(=O)N2CCOC[C@H]2C(=O)N[C@@H](CCc2ccccc2)C(=O)N[C@H](Cc2c[nH]c3ccccc23)C(=O)N[C@H]1CC1CCNCC1 [Example 45] (cyclo([Tic][Morpholine(3S-CO)][hPhe][dW][Ala(piperidin-4-yl)]Y(Bn))) |
| 102% | 0.0794 nM | 527.6 | 98.6% | 39.8 nM | COc1cccc2[nH]cc(C[C@H]3NC(=O)[C@H](CCc4ccccc4)NC(=O)[C@@H]4COCCN4C(=O)[C@@H]4Cc5ccccc5CN4C(=O)[C@H](Cc4ccc(OCc5ccccc5)cc4)NC(=O)[C@H](CC4CCNCC4)NC3=O)c12 [Example 46] (cyclo([Tic][Morpholine(3S-CO)][hPhe][dTrp(4-OMe)][Ala(piperidin-4-yl)]Y(Bn))) |
| 108% | 0.794 nM | 226.4 | 100% | 200 nM | NCCNC(=O)O[C@@H]1C[C@H]2C(=O)N[C@@H](CCc3ccccc3)C(=O)N[C@H](Cc3c[nH]c4ccccc34)C(=O)N[C@@H](CC3CCNCC3)C(=O)N[C@@H](Cc3ccc(OCc4c(Cl)cccc4Cl)cc3)C(=O)N[C@@H](Cc3cccnc3)C(=O)N2C1 [Example 47] (cyclo([3Pal][Hyp]([CO-Ethylenediamine])[hPhe][dW][Ala(piperidin-4-yl)]Y(X6))) |
| 103% | 0.02 nM | 106.6 | 100% | 2 nM | NCCNC(=O)O[C@@H]1C[C@H]2C(=O)N[C@@H](CCc3ccccc3)C(=O)N[C@H](Cc3c[nH]c4ccccc34)C(=O)N[C@@H](CN3CCNCC3)C(=O)N[C@@H](Cc3ccc(OCc4ccccc4)cc3)C(=O)N[C@@H](Cc3cccc(Cl)c3)C(=O)N2C1 [Example 48] (cyclo([Hyp]([CO-Ethylenediamine])[hPhe][dW][Ala(piperazin-1-yl)]Y(Bn)[Phe(3-Cl)])) |
| 103% | 3.16 nM | 143.3 | 98.9% | 501 nM | NCCNC(=O)O[C@@H]1C[C@H]2C(=O)N[C@@H](CCc3ccccc3)C(=O)N[C@H](Cc3c[nH]c4ccccc34)C(=O)N[C@@H](CC3CCNCC3)C(=O)N[C@@H](Cc3ccc(OCC4CCCC4)cc3)C(=O)N[C@@H](Cc3cccnc3)C(=O)N2C1 [Example 49] (cyclo([3Pal][Hyp]([CO-Ethylenediamine])[hPhe][dW][Ala(piperidin-4-yl)]Y(X1))) |
| 103% | 15.8 nM | 41.1 | 95.4% | 631 nM | NCCNC(=O)O[C@@H]1C[C@H]2C(=O)N[C@@H](CCc3ccccc3)C(=O)N[C@H](Cc3c[nH]c4ccccc34)C(=O)N[C@@H](CC3CCNCC3)C(=O)N[C@@H](Cc3ccc(OCC4CCC4)cc3)C(=O)N[C@@H](Cc3cccnc3)C(=O)N2C1 [Example 50] (cyclo([3Pal][Hyp]([CO-Ethylenediamine])[hPhe][dW][Ala(piperidin-4-yl)]Y(X4))) |
| 106% | 0.0794 nM | 64.3 | 100% | 5.01 nM | NCCNC(=O)O[C@@H]1C[C@H]2C(=O)N[C@@H](CCc3ccccc3)C(=O)N[C@H](Cc3c[nH]c4ccccc34)C(=O)N[C@@H](CN3CCNCC3)C(=O)N[C@@H](Cc3ccc(OCc4ccccc4)cc3)C(=O)N[C@@H](Cc3ccc(Cl)cc3)C(=O)N2C1 [Example 51] (cyclo([Hyp]([CO-Ethylenediamine])[hPhe][dW][Ala(piperazin-1-yl)]Y(Bn)[Phe(4-Cl)])) |
